| melting point [°C] | SMILES |
| --- | --- |
| 169 | CC(C)CN(C)c1cc2c(cc1Cl)NC(=O)CC(c1cccc(-n3nncc3CN3CCCCC3)c1)=N2 [Example 144, 8-Chloro-7-(isobutyl-methyl-amino)-4-[3-(5-piperidin-1-ylmethyl-[1,2,3]triazol-1-yl)-phenyl]-1,3-dihydro-benzo[b][1,4]diazepin-2-one] |
| 208 | CC(C)NCc1cnnn1-c1cccc(C2=Nc3cc(N(C)C(C)C)c(Cl)cc3NC(=O)C2)c1 [Example 145, 8-Chloro-4-{3-[5-(isopropylamino-methyl)-[1,2,3]triazol-1-yl]-phenyl}-7-(isopropyl-methyl-amino)-1,3-dihydro-benzo[b][1,4]diazepin-2-one] |
| 119 | COCCN(C)Cc1cnnn1-c1cccc(C2=Nc3cc(N(C)C(C)C)c(Cl)cc3NC(=O)C2)c1 [Example 146, 8-Chloro-7-(isopropyl-methyl-amino)-4-[3-(5-{[(2-methoxy-ethyl)-methyl-amino]-methyl}-[1,2,3]triazol-1-yl)-phenyl]-1,3-dihydro-benzo[b][1,4]diazepin-2-one] |
| 180 | CC(C)N(C)Cc1cnnn1-c1cccc(C2=Nc3cc(N(C)C(C)C)c(Cl)cc3NC(=O)C2)c1 [Example 148, 8-Chloro-7-(isopropyl-methyl-amino)-4-(3-{5-[(isopropyl-methyl-amino)-methyl]-[1,2,3]triazol-1-yl}-phenyl)-1,3-dihydro-benzo[b][1,4]diazepin-2-one] |
| 182 | CC(C)CN(C)Cc1cnnn1-c1cccc(C2=Nc3cc(N(C)C(C)C)c(Cl)cc3NC(=O)C2)c1 [Example 149, 8-Chloro-4-(3-{5-[(isobutyl-methyl-amino)-methyl]-[1,2,3]triazol-1-yl}-phenyl)-7-(isopropyl-methyl-amino)-1,3-dihydro-benzo[b][1,4]diazepin-2-one] |
| 197 | CC(C)N(C)c1cc2c(cc1C(F)(F)F)NC(=O)CC(c1cccc(-n3nncc3CN(C)C)c1)=N2 [Example 150, 4-[3-(5-Dimethylaminomethyl-[1,2,3]triazol-1-yl)-phenyl]-7-(isopropyl-methyl-amino)-8-trifluoromethyl-1,3-dihydro-benzo[b][1,4]diazepin-2-one] |
| 175 | CC(C)N(C)c1cc2c(cc1C(F)(F)F)NC(=O)CC(c1cccc(-n3nncc3CN3CCCC3)c1)=N2 [Example 151, 7-(Isopropyl-methyl-amino)-4-[3-(5-pyrrolidin-1-ylmethyl-[1,2,3]triazol-1-yl)-phenyl]-8-trifluoromethyl-1,3-dihydro-benzo[b][1,4]diazepin-2-one] |
| 152 | CC(C)N(C)c1cc2c(cc1C(F)(F)F)NC(=O)CC(c1cccc(-n3nncc3CNCC3CC3)c1)=N2 [Example 153, 4-(3-{5-[(Cyclopropylmethyl-amino)-methyl]-[1,2,3]triazol-1-yl}-phenyl)-7-(isopropyl-methyl-amino)-8-trifluoromethyl-1,3-dihydro-benzo[b][1,4]diazepin-2-one] |
| 144 | CC(C)N(C)c1cc2c(cc1Cl)NC(=O)CC(c1cccc(-n3nncc3CNC3CC3)c1)=N2 [Example 154, 8-Chloro-4-[3-(5-cyclopropylaminomethyl-[1,2,3]triazol-1-yl)-phenyl]-7-(isopropyl-methyl-amino)-1,3-dihydro-benzo[b][1,4]diazepin-2-one] |
| 191 | CC(C)NCc1cnnn1-c1cccc(C2=Nc3cc(N(C)C(C)C)c(C(F)(F)F)cc3NC(=O)C2)c1 [Example 155, 4-{3-[5-(Isopropylamino-methyl)-[1,2,3]triazol-1-yl]-phenyl}-7-(isopropyl-methyl-amino)-8-trifluoromethyl-1,3-dihydro-benzo[b][1,4]diazepin-2-one] |
| 182 | CC(C)CNCc1cnnn1-c1cccc(C2=Nc3cc(N(C)C(C)C)c(Cl)cc3NC(=O)C2)c1 [Example 156, 8-Chloro-4-{3-[5-(isobutylamino-methyl)-[1,2,3]triazol-1-yl]-phenyl}-7-(isopropyl-methyl-amino)-1,3-dihydro-benzo[b][1,4]-diazepin-2-one] |

Second part, the compound before the results:

| SMILES | melting point [°C] |
| --- | --- |
| CC(C)N(C)c1cc2c(cc1C(F)(F)F)NC(=O)CC(c1cccc(-n3nncc3CO)c1)=N2 [Example 119, 4-[3-(5-Hydroxymethyl-[1,2,3]triazol-1-yl)-phenyl]-7-(isopropyl-methyl-amino)-8-trifluoromethyl-1,3-dihydro-benzo[b][1,4]diazepin-2-one] | 234 |
| Cc1cc(-c2cccc(C3=Nc4cc(N(C)C(C)C)c(C(F)(F)F)cc4NC(=O)C3)c2)on1 [Example 120, 7-(Isopropyl-methyl-amino)-4-[3-(3-methyl-isoxazol-5-yl)-phenyl]-8-trifluoromethyl-1,3-dihydro-benzo[b][1,4]diazepin-2-one] | 199 |
| CCCN(C)c1cc2c(cc1Cl)NC(=O)CC(c1cccc(-n3nncc3CN(CC)CC)c1)=N2 [Example 123, 8-Chloro-4-[3-(5-diethylaminomethyl-[1,2,3]triazol-1-yl)-phenyl]-7-(methyl-propyl-amino)-1,3-dihydro-benzo[b][1,4]diazepin-2-one] | 151 |
| CCCN(C)c1cc2c(cc1Cl)NC(=O)CC(c1cccc(-n3nncc3CN(C)C(C)C)c1)=N2 [Example 124, 8-Chloro-4-(3-{5-[(isopropyl-methyl-amino)-methyl]-[1,2,3]triazol-1-yl}-phenyl)-7-(methyl-propyl-amino)-1,3-dihydro-benzo[b][1,4]diazepin-2-one] | 148 |
| CC(C)N(C)c1cc2c(cc1Cl)NC(=O)CC(c1cccc(-n3nncc3CN3CCCC3)c1)=N2 [Example 125, 8-Chloro-7-(isopropyl-methyl-amino)-4-[3-(5-pyrrolidin-1-ylmethyl-[1,2,3]triazol-1-yl)-phenyl]-1,3-dihydro-benzo[b][1,4]diazepin-2-one] | 172 |
| CC(C)CN(C)c1cc2c(cc1Cl)NC(=O)CC(c1cccc(-n3nncc3CN3CCCC3)c1)=N2 [Example 126, 8-Chloro-7-(isobutyl-methyl-amino)-4-[3-(5-pyrrolidin-1-ylmethyl-[1,2,3]triazol-1-yl)-phenyl]-1,3-dihydro-benzo[b][1,4]diazepin-2-one] | 190 |
| CC(C)CN(C)c1cc2c(cc1Cl)NC(=O)CC(c1cccc(-n3nncc3CN(C)C)c1)=N2 [Example 128, 8-Chloro-4-[3-(5-dimethylaminomethyl-[1,2,3]triazol-1-yl)-phenyl]-7-(isobutyl-methyl-amino)-1,3-dihydro-benzo[b][1,4]diazepin-2-one] | 199 |
| CC(C)N(C)c1cc2c(cc1Cl)NC(=O)CC(c1cccc(-n3nncc3CN3CCC3)c1)=N2 [Example 129, 4-[3-(5-Azetidin-1-ylmethyl-[1,2,3]triazol-1-yl)-phenyl]-8-chloro-7-(isopropyl-methyl-amino)-1,3dihydro-benzo[b][1,4]diazepin-2-one] | 177 |
| CC(C)CN(C)c1cc2c(cc1Cl)NC(=O)CC(c1cccc(-n3nncc3CN3CCC3)c1)=N2 [Example 130, 4-[3-(5-Azetidin-1-ylmethyl-[1,2,3]triazol-1-yl)-phenyl]-8-chloro-7-(isobutyl-methyl-amino)-1,3-dihydro-benzo[b][1,4]diazepin-2-one] | 191 |
| Cc1cc2c(cc1N(C)CC(C)C)N=C(c1cccc(-n3nncc3CO)c1)CC(=O)N2 [Example 132, 4-[3-(5-Hydroxymethyl-[1,2,3]triazol-1-yl)-phenyl]-7-(isobutyl-methyl-amino)-8-methyl-1,3-dihydro-benzo[b][1,4]diazepin-2-one] | 198 |
| Cc1cc(-c2cccc(C3=Nc4cc(N(C)CC(C)C)c(C)cc4NC(=O)C3)c2)on1 [Example 134, 7-(Isobutyl-methyl-amino)-8-methyl-4-[3-(3-methyl-isoxazol-5-yl)-phenyl]-1,3-dihydro-benzo[b][1,4]diazepin-2-one] | 187 |
| Cc1cc(-c2cccc(C3=Nc4cc(N5CCCC5)c(C)cc4NC(=O)C3)c2)on1 [Example 135, 8-Methyl-4-[3-(3-methyl-isoxazol-5-yl)-phenyl]-7-pyrrolidin-1-yl-1,3-dihydro-benzo[b][1,4]diazepin-2-one] | 211 |
| CC(C)CN(C)c1cc2c(cc1C(F)(F)F)NC(=O)CC(c1cccc(-n3nncc3CN(C)C)c1)=N2 [Example 136, 4-[3-(5-Dimethylaminomethyl-[1,2,3]triazol-1-yl)-phenyl]-7-(isobutyl-methyl-amino)-8-trifluoromethyl-1,3-dihydro-benzo[b][1,4]diazepin-2-one] | 182 |
| CC(C)CN(C)c1cc2c(cc1C#N)NC(=O)CC(c1cccc(-n3nncc3CN3CCCC3)c1)=N2 [Example 137, 8-(Isobutyl-methyl-amino)-4-oxo-2-[3-(5-pyrrolidin-1-ylmethyl-[1,2,3]triazol-1-yl)-phenyl]-4,5-dihydro-3H-benzo[b][1,4]diazepine-7-carbonitrile] | 174 |
| Cc1cc2c(cc1N(C)CC(C)C)N=C(c1cccc(-n3nncc3CN3CCCC3)c1)CC(=O)N2 [Example 139, 7-(Isobutyl-methyl-amino)-8-methyl-4-[3-(5-pyrrolidin-1-ylmethyl-[1,2,3]triazol-1-yl)-phenyl]-1,3-dihydro-benzo[b][1,4]diazepin-2-one] | 177 |
| CC(C)CN(C)c1cc2c(cc1C(F)(F)F)NC(=O)CC(c1cccc(-n3nncc3CN(C)C(C)C)c1)=N2 [Example 141, 7-(Isobutyl-methyl-amino)-4-(3-{5-[(isopropyl-methyl-amino)-methyl]-[1,2,3]triazol-1yl}-phenyl)-8-trifluoromethyl-1,3-dihydro-benzo[b][1,4]diazepin-2-one] | 157 |
| CC(C)N(C)c1cc2c(cc1Cl)NC(=O)CC(c1cccc(-n3nncc3CNC3CCCC3)c1)=N2 [Example 142, 8-Chloro-4-[3-(5-cyclopentylaminomethyl-[1,2,3]triazol-1-yl)-phenyl]-7-(isopropyl-methyl-amino)-1,3-dihydro-benzo[b][1,4]diazepin-2-one] | 174 |
| Cc1cc2c(cc1N(C)CC(C)C)N=C(c1cccc(-n3nncc3CNCC3CC3)c1)CC(=O)N2 [Example 143, 4-(3-{5-[(Cyclopropylmethyl-amino)-methyl]-[1,2,3]triazol-1-yl}-phenyl)-7-(isobutyl-methyl-amino)-8-methyl-1,3-dihydro-benzo[b][1,4]diazepin-2-one] | 184 |

From patent publication US6544985B2, “Dihydro-benzo [b][1,4]diazepin-2-one derivatives” (Hoffman-La Roche Inc., priority 2001, dated 2003)
